Assay results: PubChem BioAssay (NCI)
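Grown in 96-well plates, cells were treated for 48 hours with each compound at five concentrations. Insufficient inhibition: endpoint recorded as highest concentration tested. The concentration for 50% growth inhibition is given as GI50. TGI: total growth inhibition.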

Columns and labels:
Experiment in all cases: inhibition of tumour cell growth, NCI panel, 48 h
[1] = test system: 786-0 renal
[2] = test system: A498 renal
[3] = test system: A549 NSCLC
[4] = test system: CAKI-1 renal
[5] = test system: CCRF-CEM leukemia
[6] = test system: COLO 205 colon
[7] = test system: DU-145 prostate
[8] = test system: EKVX NSCLC
[9] = test system: HCT-116 colon
[10] = test system: HL-60(TB) leukemia
[11] = test system: HOP-62 NSCLC
[12] = test system: HS 578T breast
[13] = test system: IGROV1 ovarian
[14] = test system: K-562 leukemia
[15] = test system: KM12 colon
[16] = test system: LOX IMVI melanoma
[17] = test system: M14 melanoma
[18] = test system: MALME-3M melanoma
[19] = test system: MCF7 breast
[20] = test system: MDA-MB-231 breast
[21] = test system: MDA-MB-435
[22] = test system: MOLT-4 leukemia
[23] = test system: NCI-H226 lung
[24] = test system: NCI-H23 lung
[25] = test system: NCI-H460 lung
[26] = test system: NCI-H522 lung
[27] = test system: NCI/ADR-RES ovarian
[28] = test system: OVCAR-3 ovarian
[29] = test system: OVCAR-4 ovarian
[30] = test system: OVCAR-5 ovarian
[31] = test system: OVCAR-8 ovarian
[32] = test system: PC-3 prostate
[33] = test system: RPMI-8226 leukemia
[34] = test system: RXF 393 renal
[35] = test system: SF-268 CNS
[36] = test system: SF-295 CNS
[37] = test system: SF-539 CNS
[38] = test system: SK-MEL-28 melanoma
[39] = test system: SK-MEL-5 melanoma
[40] = test system: SK-OV-3 ovarian
[41] = test system: SN12C renal
[42] = test system: SNB-19 CNS
[43] = test system: SR leukemia
[44] = test system: SW-620 colon
[45] = test system: T-47D breast
[46] = test system: TK-10 renal
[47] = test system: U251 CNS
[48] = test system: UACC-257 melanoma
[49] = test system: UACC-62 melanoma
[50] = test system: UO-31 renal

SMILES: Cc1cccc(NC2=C(Cl)C(=O)N(Cc3ccc(Cl)cc3)C2=O)c1
- GI50 [1]: 2.16 µM
- TGI [1]: 14.8 µM
- GI50 [2]: 2 µM
- TGI [2]: 5.14 µM
- GI50 [3]: 12.5 µM
- TGI [3]: 34.2 µM
- GI50 [4]: 4.61 µM
- TGI [4]: 24.6 µM
- GI50 [5]: 0.214 µM
- TGI [5]: 1.78 µM
- GI50 [6]: 3.08 µM
- TGI [6]: 15 µM
- GI50 [7]: 9.97 µM
- TGI [7]: 60.2 µM
- GI50 [8]: 7.15 µM
- TGI [8]: 27.1 µM
- GI50 [9]: 2.94 µM
- TGI [9]: 10.8 µM
- GI50 [10]: 4.83 µM
- TGI [10]: 20.3 µM
- GI50 [11]: 3.88 µM
- TGI [11]: 15 µM
- GI50 [12]: 7.35 µM
- TGI [12]: 37.3 µM
- GI50 [13]: 2.25 µM
- TGI [13]: 12.1 µM
- GI50 [14]: 3.63 µM
- TGI [14]: 13.9 µM
- GI50 [15]: 3.27 µM
- TGI [15]: 16.9 µM
- GI50 [16]: 2.88 µM
- TGI [16]: 16 µM
- GI50 [17]: 4.33 µM
- TGI [17]: 19.9 µM
- GI50 [18]: 3.25 µM
- TGI [18]: 22.7 µM
- GI50 [19]: 3.17 µM
- TGI [19]: > 100 µM
- GI50 [20]: 2.27 µM
- TGI [20]: 8.77 µM
- GI50 [21]: 4.74 µM
- TGI [21]: 19 µM
- GI50 [22]: 3.14 µM
- TGI [22]: 12.4 µM
- GI50 [23]: 1.2 µM
- TGI [23]: 8.04 µM
- GI50 [24]: 1.64 µM
- TGI [24]: 10.7 µM
- GI50 [25]: 2.81 µM
- TGI [25]: 33.9 µM
- GI50 [26]: 3.09 µM
- TGI [26]: 13.1 µM
- GI50 [27]: 1.56 µM
- TGI [27]: 8.03 µM
- GI50 [28]: 7.19 µM
- TGI [28]: 21 µM
- GI50 [29]: 3.84 µM
- TGI [29]: 40.4 µM
- GI50 [30]: 28 µM
- TGI [30]: 74.5 µM
- GI50 [31]: 6.46 µM
- TGI [31]: 23.8 µM
- GI50 [32]: 2.1 µM
- TGI [32]: 8.67 µM
- GI50 [33]: 1.07 µM
- TGI [33]: 3.2 µM
- GI50 [34]: 7.72 µM
- TGI [34]: 27.6 µM
- GI50 [35]: 4.93 µM
- TGI [35]: > 100 µM
- GI50 [36]: 5.8 µM
- TGI [36]: 27.4 µM
- GI50 [37]: 2.11 µM
- TGI [37]: 13.6 µM
- GI50 [38]: 3.88 µM
- TGI [38]: 22.8 µM
- GI50 [39]: 2.23 µM
- TGI [39]: 7.76 µM
- GI50 [40]: 3.51 µM
- TGI [40]: 18.7 µM
- GI50 [41]: 4.37 µM
- TGI [41]: 43.6 µM
- GI50 [42]: 2.94 µM
- TGI [42]: 25.8 µM
- GI50 [43]: 1.79 µM
- TGI [43]: 4.88 µM
- GI50 [44]: 2.23 µM
- TGI [44]: 12.9 µM
- GI50 [45]: 3.47 µM
- TGI [45]: 28.9 µM
- GI50 [46]: 3.8 µM
- TGI [46]: 21 µM
- GI50 [47]: 4.08 µM
- TGI [47]: > 100 µM
- GI50 [48]: 16.6 µM
- TGI [48]: 47.9 µM
- GI50 [49]: 4.89 µM
- TGI [49]: 29.9 µM
- GI50 [50]: 11.9 µM
- TGI [50]: > 100 µM
